Test results taken from ChEMBL document CHEMBL5321248, “Syntheses and antitumor activities of neorautenol and shinpterocarpin analogs” (Bioorg Med Chem Lett, 2023).

Columns and labels:
NCI-H460 = assay: Antitumor activity against human NCI-H460 cells assessed as inhibition of cell growth by MTT assay; type: functional, cell-based
A549 = assay: Antitumor activity against human A549 cells assessed as inhibition of cell growth by MTT assay; type: functional, cell-based
HCT-116 = assay: Antitumor activity against human HCT-116 cells assessed as inhibition of cell growth by MTT assay; type: functional, cell-based
MDA-MB-231 = assay: Antitumor activity against human MDA-MB-231 cells assessed as inhibition of cell growth by MTT assay; type: functional, cell-based
Hep 3B2 = assay: Antitumor activity against human Hep3B cells assessed as inhibition of cell growth by MTT assay; type: functional, cell-based
NCI-H1299 = assay: Antitumor activity against human NCI-H1299 cells assessed as inhibition of cell growth by MTT assay; type: functional, cell-based
HT-22 [1] = assay: Cytotoxicity against mouse HT-22 cells assessed as reduction in cell viability at 50 uM relative to control; type: toxicity, cell-based; conditions: ht-22, 50 µM
[2] = Cytotoxicity against human RPE cells assessed as reduction in cell viability at 10 uM relative to control; type: toxicity, cell-based
[3] = Cytotoxicity against human RPE cells assessed as reduction in cell viability at 50 uM relative to control; type: toxicity, cell-based
HT-22 [4] = assay: Cytotoxicity against mouse HT-22 cells assessed as reduction in cell viability at 10 uM relative to control; type: toxicity, cell-based; conditions: ht-22, 10 µM

Row | IC50 (NCI-H460) [µM] | IC50 (A549) [µM] | IC50 (HCT-116) [µM] | IC50 (MDA-MB-231) [µM] | IC50 (NCI-H1299) [µM] | SMILES | IC50 (Hep 3B2) [µM] | Activity (HT-22 [1]) | Activity [2] [%] | Activity [3] | Activity (HT-22 [4]) [%]
1 | 24.2 | 24.6 | 17.4 | 53.1 | 15 | CC1(C)C=Cc2cc3c(cc2O1)OC[C@H]1c2ccc(O)cc2O[C@@H]31 [NEORAUTENOL] | 28.5 | – | – | – | –
2 | > 10 | > 10 | > 10 | > 10 | > 10 | COCCOc1ccc2c(c1)O[C@H]1c3cc4c(cc3OC[C@@H]21)OC(C)(C)C=C4 | > 10 | – | – | – | –
3 | > 10 | > 10 | > 10 | > 10 | > 10 | COc1ccc2c(c1)O[C@H]1c3cc4c(cc3OC[C@@H]21)OC(C)(C)C=C4 | > 10 | – | – | – | –
4 | > 10 | > 10 | > 10 | > 10 | > 10 | CC(=O)Nc1ccc2c(c1)O[C@H]1c3cc4c(cc3OC[C@@H]21)OC(C)(C)C=C4 | > 10 | – | – | – | –
5 | > 10 | > 10 | > 10 | > 10 | > 10 | CC1(C)C=Cc2cc3c(cc2O1)OC[C@H]1c2ccc(OCCN4CCOCC4)cc2O[C@@H]31 | > 10 | – | – | – | –
6 | > 10 | > 10 | > 10 | > 10 | > 10 | CC1(C)C=Cc2c(ccc3c2OC[C@H]2c4ccccc4O[C@@H]32)O1 | > 10 | – | – | – | –
7 | > 10 | > 10 | > 10 | > 10 | > 10 | CC1(C)C=Cc2cc3c(cc2O1)OC[C@H]1c2ccc(N)cc2O[C@@H]31 | > 10 | – | – | – | –
8 | 4.3 | 6.7 | 4.4 | 6.7 | 8.3 | CC1(C)C=Cc2cc3c(cc2O1)OC[C@H]1c2ccc(OCCN4CCNCC4)cc2O[C@@H]31 | > 10 | Toxic | > 70 | Non-Toxic | > 70
9 | 28 | 21.6 | 22.4 | 52.8 | 18.3 | CC1(C)C=Cc2c(ccc3c2OC[C@H]2c4ccc(O)cc4O[C@@H]32)O1 [SHINPTEROCARPIN] | 30.4 | – | – | – | –
10 | > 10 | > 10 | > 10 | > 10 | > 10 | CC1(C)C=Cc2cc3c(cc2O1)OC[C@H]1c2ccc(NS(C)(=O)=O)cc2O[C@@H]31 | > 10 | – | – | – | –
11 | > 10 | > 10 | > 10 | > 10 | > 10 | CC1(C)C=Cc2cc3c(cc2O1)OC[C@H]1c2ccc([N+](=O)[O-])cc2O[C@@H]31 | > 10 | – | – | – | –
12 | > 10 | > 10 | > 10 | > 10 | > 10 | CC1(C)C=Cc2cc3c(cc2O1)OC[C@H]1c2ccccc2O[C@@H]31 | > 10 | – | – | – | –

More lines, now with the values behind:

Row | SMILES | IC50 (NCI-H460) [µM] | IC50 (A549) [µM] | IC50 (HCT-116) [µM] | IC50 (MDA-MB-231) [µM] | IC50 (NCI-H1299) [µM] | IC50 (Hep 3B2) [µM] | Activity (HT-22 [1]) | Activity [2] [%] | Activity [3] | Activity (HT-22 [4]) [%]
13 | CC1(C)C=Cc2c(ccc3c2OC[C@H]2c4ccc([N+](=O)[O-])cc4O[C@@H]32)O1 | > 10 | > 10 | > 10 | > 10 | > 10 | > 10 | – | – | – | –
14 | COCCOc1ccc2c(c1)O[C@H]1c3ccc4c(c3OC[C@@H]21)C=CC(C)(C)O4 | > 10 | > 10 | > 10 | > 10 | > 10 | > 10 | – | – | – | –
15 | COc1ccc2c(c1)OC[C@H]1c3ccc(O)cc3O[C@@H]21 | > 10 | > 10 | > 10 | > 10 | > 10 | > 10 | – | – | – | –
16 | C#CC(C)(C)Oc1ccc2c(c1)OC[C@H]1c3ccc(O)cc3O[C@@H]21 | > 10 | > 10 | > 10 | > 10 | > 10 | > 10 | – | – | – | –
17 | CN1CCN(CCOc2ccc3c(c2)O[C@H]2c4ccc5c(c4OC[C@@H]32)C=CC(C)(C)O5)CC1 | 4.2 | 6.5 | 5.2 | > 10 | 6.6 | > 10 | Toxic | > 70 | Non-Toxic | > 70
18 | CN(C)CCOc1ccc2c(c1)O[C@H]1c3ccc4c(c3OC[C@@H]21)C=CC(C)(C)O4 | 5.7 | 8.1 | 7 | > 10 | 9.6 | > 10 | Toxic | > 70 | Non-Toxic | > 70
19 | CC1(C)C=Cc2c(ccc3c2OC[C@H]2c4ccc(OCCN5CCOCC5)cc4O[C@@H]32)O1 | > 10 | > 10 | > 10 | > 10 | > 10 | > 10 | – | – | – | –
20 | CC1(C)C=Cc2c(ccc3c2OC[C@H]2c4ccc(N)cc4O[C@@H]32)O1 | > 10 | > 10 | > 10 | > 10 | > 10 | > 10 | – | – | – | –
21 | CC(=O)Nc1ccc2c(c1)O[C@H]1c3ccc4c(c3OC[C@@H]21)C=CC(C)(C)O4 | > 10 | > 10 | > 10 | > 10 | > 10 | > 10 | – | – | – | –
22 | CC1(C)C=Cc2c(ccc3c2OC[C@H]2c4ccc(OCCN5CCNCC5)cc4O[C@@H]32)O1 | > 10 | > 10 | > 10 | > 10 | > 10 | > 10 | – | – | – | –
23 | COc1ccc2c(c1)O[C@H]1c3ccc4c(c3OC[C@@H]21)C=CC(C)(C)O4 | > 10 | > 10 | > 10 | > 10 | > 10 | > 10 | – | – | – | –
24 | CC1(C)C=Cc2c(ccc3c2OC[C@H]2c4ccc(NS(C)(=O)=O)cc4O[C@@H]32)O1 | > 10 | > 10 | > 10 | > 10 | > 10 | > 10 | – | – | – | –
